Source: ChEMBL document CHEMBL4507257, “Data for DCP probe ABT-100” (2021)

Legend:
[1] = molecular target: Calcium/calmodulin-dependent protein kinase type 1B (Homo sapiens, UniProt Q6P2M8); conditions: Compound concentration 1000.0 nM
[2] = molecular target: Serine/threonine-protein kinase Nek4 (Homo sapiens) (UniProt P51957); conditions: Compound concentration 1000.0 nM
[3] = molecular target: Dual specificity protein kinase CLK3 (Homo sapiens) (UniProt P49761); conditions: Compound concentration 1000.0 nM
[4] = molecular target: Tyrosine-protein kinase receptor TYRO3 (Homo sapiens) (UniProt Q06418); conditions: Compound concentration 1000.0 nM
[5] = molecular target: Calcium/calmodulin-dependent protein kinase type 1 (Homo sapiens) (UniProt Q14012); conditions: Compound concentration 1000.0 nM
[6] = molecular target: Tyrosine-protein kinase receptor UFO (Homo sapiens) (UniProt P30530); conditions: Compound concentration 1000.0 nM
[7] = molecular target: Cyclin-dependent kinase 8 (Homo sapiens) (UniProt P49336); conditions: Compound concentration 1000.0 nM
[8] = molecular target: Serine/threonine-protein kinase TNNI3K (Homo sapiens) (UniProt Q59H18); conditions: Compound concentration 1000.0 nM
[9] = molecular target: Casein kinase I isoform gamma-2 (Homo sapiens) (UniProt P78368); conditions: Compound concentration 1000.0 nM
[10] = molecular target: Serine/threonine-protein kinase RIO2 (Homo sapiens) (UniProt Q9BVS4); conditions: Compound concentration 1000.0 nM
[11] = molecular target: Dual specificity mitogen-activated protein kinase kinase 5 (Homo sapiens) (UniProt Q13163); conditions: Compound concentration 1000.0 nM
[12] = molecular target: Serine/threonine-protein kinase PAK 6 (Homo sapiens) (UniProt Q9NQU5); conditions: Compound concentration 1000.0 nM
[13] = molecular target: Serine/threonine-protein kinase PAK 2 (Homo sapiens) (UniProt Q13177); conditions: Compound concentration 1000.0 nM
[14] = molecular target: Mitogen-activated protein kinase 14 (Homo sapiens) (UniProt Q16539); conditions: Compound concentration 1000.0 nM
[15] = molecular target: Focal adhesion kinase 1 (Homo sapiens) (UniProt Q05397); conditions: Compound concentration 1000.0 nM
[16] = molecular target: Dual specificity mitogen-activated protein kinase kinase 7 (Homo sapiens) (UniProt O14733); conditions: Compound concentration 1000.0 nM
[17] = tested on: Mast/stem cell growth factor receptor Kit (Homo sapiens), P10721 [D816H]; conditions: Compound concentration 1000.0 nM
[18] = molecular target: NUAK family SNF1-like kinase 1 (Homo sapiens) (UniProt O60285); conditions: Compound concentration 1000.0 nM
[19] = molecular target: Serine/threonine-protein kinase 10 (Homo sapiens) (UniProt O94804); conditions: Compound concentration 1000.0 nM
[20] = molecular target: Serine/threonine-protein kinase/endoribonuclease IRE1 (Homo sapiens) (UniProt O75460); conditions: Compound concentration 1000.0 nM
[21] = molecular target: Ribosomal protein S6 kinase alpha-6 (Homo sapiens) (UniProt Q9UK32); conditions: Compound concentration 1000.0 nM
[22] = tested on: eIF-2-alpha kinase GCN2 (Homo sapiens), Q9P2K8 [S808G]; conditions: Compound concentration 1000.0 nM
[23] = molecular target: Serine/threonine-protein kinase RIO3 (Homo sapiens) (UniProt O14730); conditions: Compound concentration 1000.0 nM
[24] = molecular target: Fibroblast growth factor receptor 4 (Homo sapiens) (UniProt P22455); conditions: Compound concentration 1000.0 nM
[25] = molecular target: Bone morphogenetic protein receptor type-2 (Homo sapiens) (UniProt Q13873); conditions: Compound concentration 1000.0 nM
[26] = molecular target: Mitogen-activated protein kinase kinase kinase 3 (Homo sapiens) (UniProt Q99759); conditions: Compound concentration 1000.0 nM
[27] = molecular target: Serine/threonine-protein kinase Nek9 (Homo sapiens) (UniProt Q8TD19); conditions: Compound concentration 1000.0 nM
[28] = molecular target: Alpha-1B adrenergic receptor (Homo sapiens) (UniProt P35368); conditions: Compound concentration 10.0 uM
[29] = tested on: Epidermal growth factor receptor (Homo sapiens), P00533 [L858R,T790M]; conditions: Compound concentration 1000.0 nM
[30] = molecular target: Calcium/calmodulin-dependent protein kinase type II subunit alpha (Homo sapiens) (UniProt Q9UQM7); conditions: Compound concentration 1000.0 nM
[31] = molecular target: SRSF protein kinase 2 (Homo sapiens) (UniProt P78362); conditions: Compound concentration 1000.0 nM
[32] = molecular target: Vascular endothelial growth factor receptor 2 (Homo sapiens) (UniProt P35968); conditions: Compound concentration 1000.0 nM
[33] = molecular target: Cytoplasmic tyrosine-protein kinase BMX (Homo sapiens) (UniProt P51813); conditions: Compound concentration 1000.0 nM
[34] = molecular target: Serine/threonine-protein kinase 17A (Homo sapiens) (UniProt Q9UEE5); conditions: Compound concentration 1000.0 nM
[35] = molecular target: Leucine-rich repeat serine/threonine-protein kinase 2 (Homo sapiens) (UniProt Q5S007); conditions: Compound concentration 1000.0 nM
[36] = molecular target: Death-associated protein kinase 3 (Homo sapiens) (UniProt O43293); conditions: Compound concentration 1000.0 nM
[37] = molecular target: Serine/threonine-protein kinase ULK2 (Homo sapiens) (UniProt Q8IYT8); conditions: Compound concentration 1000.0 nM
[38] = molecular target: Kappa-type opioid receptor (Homo sapiens) (UniProt P41145); conditions: Compound concentration 10.0 uM
[39] = molecular target: Calcium/calmodulin-dependent protein kinase type II subunit beta (Homo sapiens) (UniProt Q13554); conditions: Compound concentration 1000.0 nM
[40] = tested on: ALK tyrosine kinase receptor (Homo sapiens), Q9UM73 [L1196M]; conditions: Compound concentration 1000.0 nM
[41] = tested on: Receptor-type tyrosine-protein kinase FLT3 (Homo sapiens), P36888 [D835Y]; conditions: Compound concentration 1000.0 nM
[42] = molecular target: Glycogen synthase kinase-3 alpha (Homo sapiens) (UniProt P49840); conditions: Compound concentration 1000.0 nM
[43] = tested on: Receptor-type tyrosine-protein kinase FLT3 (Homo sapiens), P36888 [D835V]; conditions: Compound concentration 1000.0 nM
[44] = molecular target: Serine/threonine-protein kinase TAO1 (Homo sapiens) (UniProt Q7L7X3); conditions: Compound concentration 1000.0 nM
[45] = molecular target: Alpha-2C adrenergic receptor (Homo sapiens) (UniProt P18825); conditions: Compound concentration 10.0 uM

Casein kinase I isoform gamma-2 (Homo sapiens), sequence (P78368 whole entry, looked up, canonical isoform): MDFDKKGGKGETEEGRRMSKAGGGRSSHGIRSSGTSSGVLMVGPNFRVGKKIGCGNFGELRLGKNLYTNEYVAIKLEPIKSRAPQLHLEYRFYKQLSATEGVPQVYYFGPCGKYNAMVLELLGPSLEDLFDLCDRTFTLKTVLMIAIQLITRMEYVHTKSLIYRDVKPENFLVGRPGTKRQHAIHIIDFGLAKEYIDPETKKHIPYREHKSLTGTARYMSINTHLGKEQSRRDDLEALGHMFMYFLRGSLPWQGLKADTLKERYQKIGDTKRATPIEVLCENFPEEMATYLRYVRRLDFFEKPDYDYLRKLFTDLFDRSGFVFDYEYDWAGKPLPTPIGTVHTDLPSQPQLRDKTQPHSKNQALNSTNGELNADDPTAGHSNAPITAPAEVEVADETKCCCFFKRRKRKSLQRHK
Mast/stem cell growth factor receptor Kit (Homo sapiens), P10721 [D816H], sequence (P10721 whole entry D816H): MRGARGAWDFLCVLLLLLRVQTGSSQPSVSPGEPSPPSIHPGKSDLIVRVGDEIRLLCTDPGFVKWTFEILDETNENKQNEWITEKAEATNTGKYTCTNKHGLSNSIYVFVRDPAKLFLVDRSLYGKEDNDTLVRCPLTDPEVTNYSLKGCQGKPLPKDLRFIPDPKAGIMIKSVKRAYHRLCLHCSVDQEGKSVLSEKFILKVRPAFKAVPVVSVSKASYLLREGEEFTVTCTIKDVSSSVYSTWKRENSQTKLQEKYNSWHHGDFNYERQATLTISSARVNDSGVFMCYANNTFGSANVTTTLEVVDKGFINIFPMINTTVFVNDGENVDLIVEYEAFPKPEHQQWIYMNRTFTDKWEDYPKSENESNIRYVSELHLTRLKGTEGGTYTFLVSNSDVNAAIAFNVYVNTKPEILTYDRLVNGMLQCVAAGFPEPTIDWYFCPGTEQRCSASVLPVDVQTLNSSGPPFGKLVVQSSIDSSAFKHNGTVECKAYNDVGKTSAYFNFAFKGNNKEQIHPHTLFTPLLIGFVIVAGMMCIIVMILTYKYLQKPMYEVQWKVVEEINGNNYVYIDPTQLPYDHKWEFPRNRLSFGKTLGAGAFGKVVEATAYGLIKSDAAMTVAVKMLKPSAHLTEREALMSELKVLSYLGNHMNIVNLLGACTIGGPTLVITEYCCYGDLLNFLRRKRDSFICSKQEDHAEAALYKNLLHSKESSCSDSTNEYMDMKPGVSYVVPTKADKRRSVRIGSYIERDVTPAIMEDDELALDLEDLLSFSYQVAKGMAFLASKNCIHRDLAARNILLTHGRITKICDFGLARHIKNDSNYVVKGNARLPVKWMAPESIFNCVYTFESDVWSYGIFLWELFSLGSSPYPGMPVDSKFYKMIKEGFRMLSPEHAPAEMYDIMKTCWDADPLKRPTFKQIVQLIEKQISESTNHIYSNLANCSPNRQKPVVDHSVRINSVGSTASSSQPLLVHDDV
SRSF protein kinase 2 (Homo sapiens), sequence (P78362 whole entry, looked up): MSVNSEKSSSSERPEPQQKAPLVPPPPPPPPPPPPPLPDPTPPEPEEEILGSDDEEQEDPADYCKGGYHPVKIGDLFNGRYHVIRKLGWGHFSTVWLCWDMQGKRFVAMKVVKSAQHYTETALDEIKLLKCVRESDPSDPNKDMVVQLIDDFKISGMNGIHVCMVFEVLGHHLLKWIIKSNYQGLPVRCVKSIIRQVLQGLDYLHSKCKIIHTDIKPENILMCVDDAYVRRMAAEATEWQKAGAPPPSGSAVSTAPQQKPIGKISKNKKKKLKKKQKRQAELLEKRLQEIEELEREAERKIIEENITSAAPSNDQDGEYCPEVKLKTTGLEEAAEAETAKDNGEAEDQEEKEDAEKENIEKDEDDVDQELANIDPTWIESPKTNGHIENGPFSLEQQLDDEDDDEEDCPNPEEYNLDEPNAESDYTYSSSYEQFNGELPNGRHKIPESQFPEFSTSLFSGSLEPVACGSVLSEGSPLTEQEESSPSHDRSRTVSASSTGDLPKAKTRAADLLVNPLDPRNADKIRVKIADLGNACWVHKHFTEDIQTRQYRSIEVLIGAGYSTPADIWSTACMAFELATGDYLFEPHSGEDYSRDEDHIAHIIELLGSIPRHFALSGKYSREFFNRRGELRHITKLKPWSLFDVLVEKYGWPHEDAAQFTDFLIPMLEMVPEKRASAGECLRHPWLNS
Serine/threonine-protein kinase 10 (Homo sapiens), sequence (O94804 whole entry, looked up): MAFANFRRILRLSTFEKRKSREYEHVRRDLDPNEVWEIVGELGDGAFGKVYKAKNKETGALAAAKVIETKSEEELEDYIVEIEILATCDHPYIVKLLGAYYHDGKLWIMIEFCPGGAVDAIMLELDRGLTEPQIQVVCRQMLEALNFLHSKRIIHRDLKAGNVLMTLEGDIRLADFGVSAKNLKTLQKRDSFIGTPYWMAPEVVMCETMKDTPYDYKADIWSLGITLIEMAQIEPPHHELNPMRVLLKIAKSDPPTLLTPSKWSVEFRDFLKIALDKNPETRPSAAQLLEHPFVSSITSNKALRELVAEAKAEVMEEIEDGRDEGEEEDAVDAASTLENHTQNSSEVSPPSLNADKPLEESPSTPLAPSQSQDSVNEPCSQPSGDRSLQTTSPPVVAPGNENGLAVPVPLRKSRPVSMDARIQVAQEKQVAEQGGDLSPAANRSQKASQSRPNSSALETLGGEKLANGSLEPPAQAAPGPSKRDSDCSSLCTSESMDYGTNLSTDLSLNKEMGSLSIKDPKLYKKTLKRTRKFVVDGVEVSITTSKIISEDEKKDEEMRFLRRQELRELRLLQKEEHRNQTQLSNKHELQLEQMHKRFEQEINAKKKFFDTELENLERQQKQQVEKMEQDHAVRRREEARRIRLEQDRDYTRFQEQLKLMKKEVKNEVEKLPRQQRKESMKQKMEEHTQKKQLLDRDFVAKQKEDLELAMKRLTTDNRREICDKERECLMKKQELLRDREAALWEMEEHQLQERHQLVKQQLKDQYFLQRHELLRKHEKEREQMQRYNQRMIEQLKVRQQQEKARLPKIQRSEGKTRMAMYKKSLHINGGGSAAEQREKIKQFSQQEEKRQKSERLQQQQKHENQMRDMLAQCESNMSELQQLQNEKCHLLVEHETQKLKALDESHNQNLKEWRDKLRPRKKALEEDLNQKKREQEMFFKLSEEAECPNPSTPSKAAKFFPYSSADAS
Glycogen synthase kinase-3 alpha (Homo sapiens), sequence (P49840 2-483 limits assumed): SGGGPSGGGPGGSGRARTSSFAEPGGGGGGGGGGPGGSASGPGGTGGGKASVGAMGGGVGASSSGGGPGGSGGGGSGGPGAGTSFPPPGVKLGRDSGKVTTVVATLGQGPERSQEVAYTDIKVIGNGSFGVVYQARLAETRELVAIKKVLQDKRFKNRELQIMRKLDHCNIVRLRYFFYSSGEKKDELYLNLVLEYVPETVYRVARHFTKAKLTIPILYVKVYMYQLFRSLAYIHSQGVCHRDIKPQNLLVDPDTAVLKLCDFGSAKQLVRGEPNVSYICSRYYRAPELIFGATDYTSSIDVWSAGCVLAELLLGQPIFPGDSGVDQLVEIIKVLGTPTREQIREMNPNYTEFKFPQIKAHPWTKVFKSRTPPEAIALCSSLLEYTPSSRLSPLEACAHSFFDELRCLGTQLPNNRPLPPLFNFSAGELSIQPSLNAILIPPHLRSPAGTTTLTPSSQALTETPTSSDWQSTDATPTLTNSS
Mitogen-activated protein kinase 14 (Homo sapiens), sequence (Q16539 whole entry): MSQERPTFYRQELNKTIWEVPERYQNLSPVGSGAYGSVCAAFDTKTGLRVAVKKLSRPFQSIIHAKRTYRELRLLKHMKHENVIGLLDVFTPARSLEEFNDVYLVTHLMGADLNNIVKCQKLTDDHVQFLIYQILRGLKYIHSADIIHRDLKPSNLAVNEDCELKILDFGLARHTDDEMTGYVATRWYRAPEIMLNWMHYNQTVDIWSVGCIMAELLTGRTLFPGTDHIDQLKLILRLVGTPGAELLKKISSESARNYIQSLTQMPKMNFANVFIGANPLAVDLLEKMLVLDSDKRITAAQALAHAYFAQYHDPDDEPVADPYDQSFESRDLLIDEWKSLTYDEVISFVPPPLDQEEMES
Serine/threonine-protein kinase Nek4 (Homo sapiens), sequence (P51957 whole entry, looked up): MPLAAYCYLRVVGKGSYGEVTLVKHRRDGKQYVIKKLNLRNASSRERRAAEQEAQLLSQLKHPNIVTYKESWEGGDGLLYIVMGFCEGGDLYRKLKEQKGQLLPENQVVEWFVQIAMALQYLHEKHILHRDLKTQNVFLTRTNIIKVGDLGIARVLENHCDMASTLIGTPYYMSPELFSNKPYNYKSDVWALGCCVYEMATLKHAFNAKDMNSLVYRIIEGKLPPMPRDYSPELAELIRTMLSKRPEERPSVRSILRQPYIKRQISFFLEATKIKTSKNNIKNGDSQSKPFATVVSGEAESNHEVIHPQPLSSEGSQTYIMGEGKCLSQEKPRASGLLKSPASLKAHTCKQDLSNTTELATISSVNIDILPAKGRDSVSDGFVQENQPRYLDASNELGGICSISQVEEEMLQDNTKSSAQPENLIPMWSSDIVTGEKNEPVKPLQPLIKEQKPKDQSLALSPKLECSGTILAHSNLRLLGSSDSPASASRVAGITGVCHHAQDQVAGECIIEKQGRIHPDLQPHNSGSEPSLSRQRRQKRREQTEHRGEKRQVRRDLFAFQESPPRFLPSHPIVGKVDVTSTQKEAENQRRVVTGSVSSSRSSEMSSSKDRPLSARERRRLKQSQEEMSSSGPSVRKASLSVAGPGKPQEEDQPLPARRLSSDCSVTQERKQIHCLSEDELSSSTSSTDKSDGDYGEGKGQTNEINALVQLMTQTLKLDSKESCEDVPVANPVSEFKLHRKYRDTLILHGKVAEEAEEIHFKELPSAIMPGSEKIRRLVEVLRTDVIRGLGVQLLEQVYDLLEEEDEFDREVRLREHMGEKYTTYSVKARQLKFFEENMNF

Cn1cncc1[C@@](O)(COc1ccc(C#N)cc1-c1ccc(OC(F)(F)F)cc1)c1ccc(C#N)cc1 [A-108]
inactive: residual activity [1] 100% | residual activity [2] 90% | residual activity [3] 100% | residual activity [4] 100% | residual activity [5] 100% | residual activity [6] 100% | residual activity [7] 100% | residual activity [8] 100% | residual activity [9] 64% | residual activity [10] 100% | residual activity [11] 88% | residual activity [12] 100% | residual activity [13] 96% | residual activity [14] 100% | residual activity [15] 97% | residual activity [16] 96% | residual activity [17] 100% | residual activity [18] 100% | residual activity [19] 100% | residual activity [20] 95% | residual activity [21] 100% | residual activity [22] 100% | residual activity [23] 90% | residual activity [24] 100% | residual activity [25] 100% | residual activity [26] 81% | residual activity [27] 100% | inhibition [28] 5.97% | residual activity [29] 96% | residual activity [30] 84% | residual activity [31] 55% | residual activity [32] 100% | residual activity [33] 64% | residual activity [34] 100% | residual activity [35] 100% | residual activity [36] 100% | residual activity [37] 100% | inhibition [38] 1.27% | residual activity [39] 90% | residual activity [40] 100% | residual activity [41] 78% | residual activity [42] 100% | residual activity [43] 89% | residual activity [44] 100% | inhibition [45] 8.51%

Cn1cncc1[C@](O)(COc1ccc(C#N)cc1-c1ccc(OC(F)(F)F)cc1)c1ccc(C#N)cc1 [ABT-100]
inactive: residual activity [1] 60% | residual activity [2] 100% | residual activity [3] 75% | residual activity [4] 61% | residual activity [5] 99% | residual activity [6] 100% | residual activity [7] 66% | residual activity [8] 82% | residual activity [9] 78% | residual activity [10] 83% | residual activity [11] 83% | residual activity [12] 98% | residual activity [13] 93% | residual activity [14] 100% | residual activity [15] 77% | residual activity [16] 100% | residual activity [17] 77% | residual activity [18] 81% | residual activity [19] 100% | residual activity [20] 100% | residual activity [21] 93% | residual activity [22] 99% | residual activity [23] 95% | residual activity [24] 100% | residual activity [25] 89% | residual activity [26] 100% | residual activity [27] 72% | inhibition [28] 16.6% | residual activity [29] 100% | residual activity [30] 95% | residual activity [31] 100% | residual activity [32] 96% | residual activity [33] 75% | residual activity [34] 100% | residual activity [35] 100% | residual activity [36] 88% | residual activity [37] 100% | inhibition [38] -7.18% | residual activity [39] 85% | residual activity [40] 100% | residual activity [41] 95% | residual activity [42] 62% | residual activity [43] 100% | residual activity [44] 87% | inhibition [45] 5%
